Experimental findings from ChEMBL document CHEMBL4706555, “Synthesis of biphenyl oxazole derivatives via Suzuki coupling and biological evaluations as nucleotide pyrophosphatase/phosphodiesterase-1 and -3 inhibitors” (Eur J Med Chem, 2020) are described below.

Assay [1] concerns the target T1, Ectonucleotide pyrophosphatase/phosphodiesterase family member 3 (Homo sapiens, UniProt O14638).
T1 sequence (O14638 whole entry): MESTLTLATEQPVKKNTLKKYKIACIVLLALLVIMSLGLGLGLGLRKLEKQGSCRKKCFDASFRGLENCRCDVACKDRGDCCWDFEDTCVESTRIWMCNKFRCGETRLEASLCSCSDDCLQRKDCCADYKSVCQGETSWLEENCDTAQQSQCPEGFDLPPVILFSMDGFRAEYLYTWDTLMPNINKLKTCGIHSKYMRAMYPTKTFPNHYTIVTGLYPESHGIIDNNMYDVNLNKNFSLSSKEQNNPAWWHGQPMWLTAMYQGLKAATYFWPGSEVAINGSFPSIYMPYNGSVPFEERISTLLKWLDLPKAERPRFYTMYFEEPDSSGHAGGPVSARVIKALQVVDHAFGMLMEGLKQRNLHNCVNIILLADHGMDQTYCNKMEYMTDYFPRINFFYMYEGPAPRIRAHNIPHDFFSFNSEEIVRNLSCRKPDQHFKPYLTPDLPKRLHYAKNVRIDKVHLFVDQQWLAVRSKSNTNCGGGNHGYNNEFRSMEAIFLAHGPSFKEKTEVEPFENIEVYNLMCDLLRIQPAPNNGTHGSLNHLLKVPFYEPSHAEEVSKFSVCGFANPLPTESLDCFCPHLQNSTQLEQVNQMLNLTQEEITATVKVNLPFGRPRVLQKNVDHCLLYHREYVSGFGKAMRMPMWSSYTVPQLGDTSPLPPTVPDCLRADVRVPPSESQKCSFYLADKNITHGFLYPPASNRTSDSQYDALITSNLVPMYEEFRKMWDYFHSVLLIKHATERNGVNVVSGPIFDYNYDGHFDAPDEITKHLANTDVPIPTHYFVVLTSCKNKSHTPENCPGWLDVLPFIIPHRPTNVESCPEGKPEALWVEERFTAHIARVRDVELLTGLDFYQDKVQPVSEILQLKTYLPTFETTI
Put plainly: Inhibition of human recombinant NPP3 expressed in COS-7 cell membrane […] using p-nitrophenyl thymidine monophosphate substrate incubated for 35 mins by spectrophotometric analysis. It counts as cell membranes.

The target in assay [2] is T2, Ectonucleotide pyrophosphatase/phosphodiesterase family member 1 (Homo sapiens, UniProt P22413).
T2 sequence (P22413 whole entry): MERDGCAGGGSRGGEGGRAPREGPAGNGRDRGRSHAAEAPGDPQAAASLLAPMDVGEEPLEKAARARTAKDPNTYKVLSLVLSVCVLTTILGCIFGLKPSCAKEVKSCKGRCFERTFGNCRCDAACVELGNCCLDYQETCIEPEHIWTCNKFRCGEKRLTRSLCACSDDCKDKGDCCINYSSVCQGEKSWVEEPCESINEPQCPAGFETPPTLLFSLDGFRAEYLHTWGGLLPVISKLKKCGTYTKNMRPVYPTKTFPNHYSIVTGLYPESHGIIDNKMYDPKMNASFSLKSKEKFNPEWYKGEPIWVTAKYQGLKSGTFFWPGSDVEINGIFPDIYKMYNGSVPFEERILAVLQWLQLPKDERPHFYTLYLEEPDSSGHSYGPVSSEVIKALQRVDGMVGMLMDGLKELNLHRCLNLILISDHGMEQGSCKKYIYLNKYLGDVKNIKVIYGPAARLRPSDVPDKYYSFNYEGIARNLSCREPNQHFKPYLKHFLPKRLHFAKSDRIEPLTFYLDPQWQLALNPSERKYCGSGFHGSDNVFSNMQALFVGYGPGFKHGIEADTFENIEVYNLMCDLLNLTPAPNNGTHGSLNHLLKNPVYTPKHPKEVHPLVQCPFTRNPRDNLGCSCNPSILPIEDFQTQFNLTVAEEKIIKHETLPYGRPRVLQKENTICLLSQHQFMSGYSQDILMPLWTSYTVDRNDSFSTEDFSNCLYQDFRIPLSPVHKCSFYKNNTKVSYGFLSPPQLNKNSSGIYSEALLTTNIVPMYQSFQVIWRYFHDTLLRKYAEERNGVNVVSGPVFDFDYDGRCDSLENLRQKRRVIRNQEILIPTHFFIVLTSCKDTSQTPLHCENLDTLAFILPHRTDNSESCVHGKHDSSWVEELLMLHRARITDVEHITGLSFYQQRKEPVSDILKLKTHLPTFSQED
In words: Inhibition of human recombinant NPP1 expressed in COS-7 cell membrane […] using p-nitrophenyl thymidine monophosphate substrate incubated for 35 mins by spectrophotometric analysis. It counts as cell membranes.

For assay [3], the target named is Ectonucleotide pyrophosphatase/phosphodiesterase family member 3 (Homo sapiens) (UniProt O14638). In words: Inhibition of human recombinant NPP3 expressed in COS-7 cell membrane using p-nitrophenyl thymidine monophosphate substrate incubated for 35 mins by spectrophotometric analysis. Set-up: concentration or dose not given beside the values.
Assay [4] deals with T3, Ectonucleotide pyrophosphatase/phosphodiesterase family member 1 (Homo sapiens) (UniProt P22413).
T3 sequence (whole entry): T2 sequence (P22413 whole entry)
Put plainly: Inhibition of human recombinant NPP1 expressed in COS-7 cell membrane using p-nitrophenyl thymidine monophosphate substrate incubated for 35 mins by spectrophotometric analysis. The assay is classed as cell membranes. Set-up: concentration or dose not given beside the values.

Assay [5] addresses T4, Ectonucleotide pyrophosphatase/phosphodiesterase family member 3 (Homo sapiens) (UniProt O14638).
T4 sequence (whole entry): T1 sequence (O14638 whole entry)
In words: Potency index, ratio of IC50 for suramin to IC50 for test compound for human recombinant NPP3 expressed in COS-7 cell membrane using p-nitrophenyl thymidine monophosphate substrate incubated for 35 mins by spectrophotometric analysis. It counts as cell membranes.

For assay [6], the target named is T3, Ectonucleotide pyrophosphatase/phosphodiesterase family member 1 (Homo sapiens). In words: Potency index, ratio of IC50 for suramin to IC50 for test compound for human recombinant NPP1 expressed in COS-7 cell membrane using p-nitrophenyl thymidine monophosphate substrate incubated for 35 mins by spectrophotometric analysis. It counts as cell membranes.

The IC50 is the midpoint of a concentration-inhibition curve. Consider `COc1ccc(-c2ccc(-c3coc(-c4ccccc4)n3)cc2)cc1`, for which the IC50 in assay [1] is 3.73 µM; in assay [2], 17.2 µM.
`Cc1nc(-c2ccc(-c3ccc(OCc4ccccc4)cc3)cc2)co1`: the IC50 amounted to 1.31 µM in assay [1] and 1.44 µM in assay [2].
A word on the inhibition: it is the drop in the measured response relative to a control, in per cent. `Cc1nc(-c2ccc(-c3ccccc3C)cc2)co1`: the figures for the inhibition in assay [3] and in assay [4] were 45% and 40%, respectively.
As to `Cc1cccc(-c2ccc(-c3coc(-c4ccccc4)n3)cc2)c1`, in assay [4], the inhibition came to 48%.
As to `c1ccc(-c2ccc(-c3coc(-c4ccccc4-c4ccccc4)n3)cc2)cc1`, the inhibition in assay [3] is 47%; in assay [4] it was 33%.
Regarding `Cc1ccc(-c2ccc(-c3coc(C)n3)cc2)cc1`, the IC50 came out at 5.06 µM in assay [1] and 2.56 µM in assay [2].
As to `CCOc1ccccc1-c1nc(-c2ccc(-c3ccccc3)cc2)co1`, the inhibition in assay [3] worked out at 48%; in assay [4] it was 27%.
As to `Cc1nc(-c2ccc(-c3ccccc3)cc2)co1`, the inhibition in assay [3] is 43%; in assay [4], 46%.
For `c1ccc(-c2ccc(-c3coc(-c4ccccc4)n3)cc2)cc1`, the figures for the inhibition in assay [3] and in assay [4] were 49% and 31%, respectively.
As to `COc1ccc(-c2ccc(-c3coc(C)n3)cc2)cc1`, the Ratio IC50 in assay [5] was 5.3. Besides, the inhibition in assay [4] amounted to 38%. For the same molecule, the IC50 in assay [1] worked out at 0.17 µM.
On to `c1ccc(-c2nc(-c3ccc(-c4cccc5ccccc45)cc3)co2)cc1`, for which the inhibition was determined as 43% in assay [3] and 44% in assay [4].
Consider `CCOc1ccccc1-c1nc(-c2ccc(-c3ccc(C)cc3)cc2)co1`, for which the IC50 in assay [1] is 11.1 µM; in assay [2] it was 9.23 µM.
Turning to `Cc1cccc(-c2ccc(-c3coc(-c4ccccc4-c4cccc(C)c4)n3)cc2)c1`, in assay [4], the inhibition was determined as 36%. Besides, the IC50 in assay [1] was determined as 2.21 µM.
As for `Cc1nc(-c2ccc(-c3cccc4ccccc34)cc2)co1`, the IC50 amounted to 0.15 µM in assay [1] and 2.41 µM in assay [2].
For the molecule `CCOc1ccccc1-c1nc(-c2ccc(-c3cccc4ccccc34)cc2)co1`, in assay [3], the inhibition came to 40%. Also, the Ratio IC50 in assay [6] worked out at 51.8. In assay [2], the IC50 is 0.15 µM.
Turning to `Cc1ccccc1-c1ccc(-c2coc(-c3ccccc3)n2)cc1`, the IC50 in assay [1] is 4.23 µM; in assay [2], 0.42 µM.
On to `Cc1cccc(-c2ccc(-c3coc(C)n3)cc2)c1`, for which the inhibition in assay [4] worked out at 43%. In assay [1], the IC50 came to 1.7 µM.
